Activity calls are given as the source filed them.
Assays:
[1] = test system: HT-1080; assay: cytotoxicity in HT1080 fibrosarcoma cells, cell-based, fluorescence readout (AID 620); format: functional; settings: Homo sapiens
[2] = molecular target: Luciferin 4-monooxygenase (Photinus pyralis, UniProt P08659); assay: Counter Screen for Luciferase-based Assay Positives. [Related pubchem assays: 620, 618, 411 ]
[3] = inhibitors of SNCA 5'UTR-driven reporter translation, confirmation, H4 neuroglioma cells, luminescence (AID 1988); format: functional, cell-based
[4] = test system: HEK293; assay: inhibitors of LMP1-driven NF-kB reporter, dose response, cell-based, HEK293, luciferase, cherry-pick (AID 588343); format: functional; settings: Homo sapiens
[5] = inhibitors of firefly luciferase expression or activity, dose response, H4 neuroglioma cells, luminescence (AID 1990); format: functional, cell-based
[6] = Luminescence Cell-Based Dose Response HTS to Identify Inhibitors of 5'UTR Stem-Loop Driven Prion Protein mRNA Translation in H4 Neuroglioblastoma Cells. [Related pubchem assays: 1827 (Project Summary), 1813 (Primary HTS)]; format: functional
[7] = molecular target: T1, Ubiquitin-conjugating enzyme E2 N (Homo sapiens, UniProt P61088); format: functional;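 further: Dose-response confirmation in a TR-FRET assay detecting UBC13-driven polyubiquitin chain formation, inhibition measured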
T1 sequence (P61088 whole entry): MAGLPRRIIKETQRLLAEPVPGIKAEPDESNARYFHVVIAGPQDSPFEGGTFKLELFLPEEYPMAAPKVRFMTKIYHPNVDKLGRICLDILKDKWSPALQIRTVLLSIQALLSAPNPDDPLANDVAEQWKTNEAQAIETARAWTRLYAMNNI

[8] = molecular target: Glyceraldehyde-3-phosphate dehydrogenase (Homo sapiens, UniProt P04406)
[9] = THP-1 cell cytotoxicity, dose response, cytotoxicity control for non-replicating M. tuberculosis project (AID 489025); format: functional
[10] = molecular target: Voltage-dependent T-type calcium channel subunit alpha-1H (Homo sapiens, UniProt O95180); format: functional;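 further: channel activity triggered by adding a high calcium stimulation buffer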
[11] = Vero E6 cell cytotoxicity, dose response, cytotoxicity control for non-replicating M. tuberculosis project, secondary assay (AID 492998); format: functional, VeroE6; settings: Vero C1008
[12] = cells; format: functional
[13] = HepG2 cell cytotoxicity, dose response, cytotoxicity control for non-replicating M. tuberculosis project (AID 489018); format: functional; settings: Mycobacterium tuberculosis
[14] = molecular target: T2, Neuropeptide Y receptor type 2 (Homo sapiens, UniProt P49146); assay: Fluorescence-based cell-based high-throughput dose response assay for agonists of NPY-Y2. [Related pubchem assays: 1703 (Screening assay (CNGC inhibitors).), 1359 (Screening assay (NPY-Y2 potentiators or agonists).), 1304 (Screening assay (NPY-Y1 potentiators or agonists).), 1710 (Screening assay (NPY-Y2 agonists).), 1791 (Summary AID.)]; format: functional
T2 sequence (P49146 whole entry): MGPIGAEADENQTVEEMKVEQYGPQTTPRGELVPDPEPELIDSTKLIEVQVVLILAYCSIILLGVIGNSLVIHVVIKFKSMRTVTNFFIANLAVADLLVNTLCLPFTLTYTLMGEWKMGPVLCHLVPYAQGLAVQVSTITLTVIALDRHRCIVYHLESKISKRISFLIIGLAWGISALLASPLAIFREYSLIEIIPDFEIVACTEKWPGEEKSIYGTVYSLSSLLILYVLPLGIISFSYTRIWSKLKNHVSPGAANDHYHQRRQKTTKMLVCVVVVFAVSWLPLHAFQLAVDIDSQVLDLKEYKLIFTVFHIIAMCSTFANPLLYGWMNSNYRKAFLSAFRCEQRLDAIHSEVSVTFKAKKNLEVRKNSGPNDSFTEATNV

[15] = test system: HEK293; assay: Fluorescence-based counterscreen for potentiators or agonists of NPY-Y2: cell-based high-throughput dose response assay to identify inhibitors of cyclic nucleotide gated ion channel (CNGC) activity. In this assay, the parental HEK293 cell line transfected with a cyclic-nucleotide gated ion channel (CNGC)-based cAMP sensor is used to measure inhibition of isoproterenol-induced CNGC activity by test compound.; format: functional; settings: Homo sapiens
[16] = molecular target: T3, Neuropeptide Y receptor type 1 (Homo sapiens, UniProt P25929); assay: Fluorescence-based counterscreen for agonists of NPY-Y2: cell-based high-throughput dose response assay for agonists of NPY-Y1.; format: functional
T3 sequence (P25929 whole entry): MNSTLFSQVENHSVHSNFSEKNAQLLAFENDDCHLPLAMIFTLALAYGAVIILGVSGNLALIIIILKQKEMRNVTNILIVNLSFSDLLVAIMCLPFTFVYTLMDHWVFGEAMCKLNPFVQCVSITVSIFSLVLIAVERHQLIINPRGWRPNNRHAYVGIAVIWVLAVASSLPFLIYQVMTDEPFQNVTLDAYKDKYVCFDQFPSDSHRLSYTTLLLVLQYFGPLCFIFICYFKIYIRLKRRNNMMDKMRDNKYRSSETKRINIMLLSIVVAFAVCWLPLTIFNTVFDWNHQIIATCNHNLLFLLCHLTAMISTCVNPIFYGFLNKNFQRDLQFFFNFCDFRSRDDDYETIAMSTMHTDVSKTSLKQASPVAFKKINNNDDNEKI

[17] = HEp-2 cell cytotoxicity, dose response, cytotoxicity control for RSV inhibitor project, HTS (AID 2410); format: functional; settings: human respiratory syncytial virus
[18] = molecular target: T4, Corticotropin-releasing factor receptor 2/Corticotropin-releasing factor-binding protein (Homo sapiens, UniProt P24387+Q13324); assay: activators of CRF receptor 2 with binding protein – uHTS hits, confirmation (AID 602473); format: functional; settings: read-out: EC50_Mean
T4 sequence (Q13324 whole entry): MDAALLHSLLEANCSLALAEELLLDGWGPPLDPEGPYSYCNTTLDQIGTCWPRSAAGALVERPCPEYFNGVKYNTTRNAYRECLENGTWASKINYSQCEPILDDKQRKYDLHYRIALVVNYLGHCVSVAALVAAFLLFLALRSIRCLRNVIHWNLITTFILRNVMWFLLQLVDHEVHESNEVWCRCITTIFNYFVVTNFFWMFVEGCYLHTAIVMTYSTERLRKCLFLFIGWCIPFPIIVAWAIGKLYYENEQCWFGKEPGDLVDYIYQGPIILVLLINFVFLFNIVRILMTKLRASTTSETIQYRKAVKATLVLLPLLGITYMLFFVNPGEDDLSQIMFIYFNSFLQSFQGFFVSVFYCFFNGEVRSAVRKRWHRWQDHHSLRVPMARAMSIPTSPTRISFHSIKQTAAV
T4 sequence (P24387 whole entry): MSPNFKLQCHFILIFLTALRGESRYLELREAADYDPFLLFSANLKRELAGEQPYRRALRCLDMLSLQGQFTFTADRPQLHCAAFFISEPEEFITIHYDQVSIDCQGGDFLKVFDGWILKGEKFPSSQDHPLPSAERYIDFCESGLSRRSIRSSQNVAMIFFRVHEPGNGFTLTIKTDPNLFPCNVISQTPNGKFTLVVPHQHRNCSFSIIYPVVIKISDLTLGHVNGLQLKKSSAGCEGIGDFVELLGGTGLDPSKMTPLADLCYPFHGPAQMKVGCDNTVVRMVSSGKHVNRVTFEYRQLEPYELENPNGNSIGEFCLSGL

[19] = cells
[20] = molecular target: T5, Bcl-2-like protein 10 (Homo sapiens, UniProt Q9HD36); assay: displacers of TR3 peptide from Bcl-B, primary screen, selectivity assay for Bfl-1 inhibitor project, biochemical, fluorescence polarization, FITC-TR3 peptide (AID 748);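 further: fluorescence polarization from a fluorescein-labelled TR3 peptide binding purified Bcl-B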
T5 sequence (Q9HD36 whole entry): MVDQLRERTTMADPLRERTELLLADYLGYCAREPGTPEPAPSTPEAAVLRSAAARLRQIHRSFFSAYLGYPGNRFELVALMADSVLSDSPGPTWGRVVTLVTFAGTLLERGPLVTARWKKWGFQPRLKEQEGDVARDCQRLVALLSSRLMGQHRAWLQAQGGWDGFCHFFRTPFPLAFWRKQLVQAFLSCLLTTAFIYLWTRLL

[21] = molecular target: NS3 (Hepatitis C virus, UniProt A3EZJ3); assay: PubChem AID 2173; set-up: species or system Hepacivirus hominis
[22] = molecular target: Peroxisome proliferator-activated receptor gamma/Nuclear receptor coactivator 2 (Homo sapiens, UniProt P37231); format: functional;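 further: agonist potency for raising coactivator recruitment to the receptor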
[23] = molecular target: Peroxisome proliferator-activated receptor gamma/Nuclear receptor coactivator 3 (Homo sapiens, UniProt P37231); format: functional;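 further: agonist potency for raising coactivator recruitment to the receptor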
[24] = molecular target: T4, Corticotropin-releasing factor receptor 2/Corticotropin-releasing factor-binding protein; assay: Dose Response confirmation of uHTS hits for small molecule antagonists of the CRF-binding protein and CRF-R2 receptor complex.; format: functional; settings: read-out: IC50_Mean
[25] = molecular target: Peroxisome proliferator-activated receptor gamma/Nuclear receptor coactivator 1 (Homo sapiens, UniProt P37231); format: functional;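 further: agonist potency as compounds enhance coactivator SRC-1 recruitment to PPARgamma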
[26] = test system: Vero; assay: cells; format: functional, cell-based; settings: Chlorocebus sabaeus
[27] = test system: H4; assay: Luminescence Cell-Based Dose Response HTS to Identify Activators of 5'UTR Stem-Loop Driven Prion Protein mRNA Translation in H4 Neuroglioblastoma Cells. [Related pubchem assays: 1829 (Project Summary), 1814 (Primary HTS)]; format: functional; settings: Homo sapiens
[28] = Luminescence Cell-Based Dose Response HTS to Identify Activators of Luciferase Translation or Activity in H4 […] Cells. [Related pubchem assays: 1829 (Project Summary), 1814 (Primary HTS)]; format: functional
[29] = test system: Vero; assay: cells; format: functional; settings: Chlorocebus sabaeus

Sequence of Glyceraldehyde-3-phosphate dehydrogenase (P04406 whole entry): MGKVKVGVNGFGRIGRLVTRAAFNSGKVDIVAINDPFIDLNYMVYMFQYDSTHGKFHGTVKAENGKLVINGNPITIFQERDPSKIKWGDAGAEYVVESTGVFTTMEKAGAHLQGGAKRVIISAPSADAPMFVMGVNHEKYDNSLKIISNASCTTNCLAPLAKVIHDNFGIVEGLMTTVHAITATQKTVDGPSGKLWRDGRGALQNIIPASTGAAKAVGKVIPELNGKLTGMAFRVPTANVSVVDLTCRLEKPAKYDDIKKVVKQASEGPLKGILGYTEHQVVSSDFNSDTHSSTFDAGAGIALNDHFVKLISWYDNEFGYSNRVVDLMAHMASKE
Sequence of Voltage-dependent T-type calcium channel subunit alpha-1H (O95180 whole entry): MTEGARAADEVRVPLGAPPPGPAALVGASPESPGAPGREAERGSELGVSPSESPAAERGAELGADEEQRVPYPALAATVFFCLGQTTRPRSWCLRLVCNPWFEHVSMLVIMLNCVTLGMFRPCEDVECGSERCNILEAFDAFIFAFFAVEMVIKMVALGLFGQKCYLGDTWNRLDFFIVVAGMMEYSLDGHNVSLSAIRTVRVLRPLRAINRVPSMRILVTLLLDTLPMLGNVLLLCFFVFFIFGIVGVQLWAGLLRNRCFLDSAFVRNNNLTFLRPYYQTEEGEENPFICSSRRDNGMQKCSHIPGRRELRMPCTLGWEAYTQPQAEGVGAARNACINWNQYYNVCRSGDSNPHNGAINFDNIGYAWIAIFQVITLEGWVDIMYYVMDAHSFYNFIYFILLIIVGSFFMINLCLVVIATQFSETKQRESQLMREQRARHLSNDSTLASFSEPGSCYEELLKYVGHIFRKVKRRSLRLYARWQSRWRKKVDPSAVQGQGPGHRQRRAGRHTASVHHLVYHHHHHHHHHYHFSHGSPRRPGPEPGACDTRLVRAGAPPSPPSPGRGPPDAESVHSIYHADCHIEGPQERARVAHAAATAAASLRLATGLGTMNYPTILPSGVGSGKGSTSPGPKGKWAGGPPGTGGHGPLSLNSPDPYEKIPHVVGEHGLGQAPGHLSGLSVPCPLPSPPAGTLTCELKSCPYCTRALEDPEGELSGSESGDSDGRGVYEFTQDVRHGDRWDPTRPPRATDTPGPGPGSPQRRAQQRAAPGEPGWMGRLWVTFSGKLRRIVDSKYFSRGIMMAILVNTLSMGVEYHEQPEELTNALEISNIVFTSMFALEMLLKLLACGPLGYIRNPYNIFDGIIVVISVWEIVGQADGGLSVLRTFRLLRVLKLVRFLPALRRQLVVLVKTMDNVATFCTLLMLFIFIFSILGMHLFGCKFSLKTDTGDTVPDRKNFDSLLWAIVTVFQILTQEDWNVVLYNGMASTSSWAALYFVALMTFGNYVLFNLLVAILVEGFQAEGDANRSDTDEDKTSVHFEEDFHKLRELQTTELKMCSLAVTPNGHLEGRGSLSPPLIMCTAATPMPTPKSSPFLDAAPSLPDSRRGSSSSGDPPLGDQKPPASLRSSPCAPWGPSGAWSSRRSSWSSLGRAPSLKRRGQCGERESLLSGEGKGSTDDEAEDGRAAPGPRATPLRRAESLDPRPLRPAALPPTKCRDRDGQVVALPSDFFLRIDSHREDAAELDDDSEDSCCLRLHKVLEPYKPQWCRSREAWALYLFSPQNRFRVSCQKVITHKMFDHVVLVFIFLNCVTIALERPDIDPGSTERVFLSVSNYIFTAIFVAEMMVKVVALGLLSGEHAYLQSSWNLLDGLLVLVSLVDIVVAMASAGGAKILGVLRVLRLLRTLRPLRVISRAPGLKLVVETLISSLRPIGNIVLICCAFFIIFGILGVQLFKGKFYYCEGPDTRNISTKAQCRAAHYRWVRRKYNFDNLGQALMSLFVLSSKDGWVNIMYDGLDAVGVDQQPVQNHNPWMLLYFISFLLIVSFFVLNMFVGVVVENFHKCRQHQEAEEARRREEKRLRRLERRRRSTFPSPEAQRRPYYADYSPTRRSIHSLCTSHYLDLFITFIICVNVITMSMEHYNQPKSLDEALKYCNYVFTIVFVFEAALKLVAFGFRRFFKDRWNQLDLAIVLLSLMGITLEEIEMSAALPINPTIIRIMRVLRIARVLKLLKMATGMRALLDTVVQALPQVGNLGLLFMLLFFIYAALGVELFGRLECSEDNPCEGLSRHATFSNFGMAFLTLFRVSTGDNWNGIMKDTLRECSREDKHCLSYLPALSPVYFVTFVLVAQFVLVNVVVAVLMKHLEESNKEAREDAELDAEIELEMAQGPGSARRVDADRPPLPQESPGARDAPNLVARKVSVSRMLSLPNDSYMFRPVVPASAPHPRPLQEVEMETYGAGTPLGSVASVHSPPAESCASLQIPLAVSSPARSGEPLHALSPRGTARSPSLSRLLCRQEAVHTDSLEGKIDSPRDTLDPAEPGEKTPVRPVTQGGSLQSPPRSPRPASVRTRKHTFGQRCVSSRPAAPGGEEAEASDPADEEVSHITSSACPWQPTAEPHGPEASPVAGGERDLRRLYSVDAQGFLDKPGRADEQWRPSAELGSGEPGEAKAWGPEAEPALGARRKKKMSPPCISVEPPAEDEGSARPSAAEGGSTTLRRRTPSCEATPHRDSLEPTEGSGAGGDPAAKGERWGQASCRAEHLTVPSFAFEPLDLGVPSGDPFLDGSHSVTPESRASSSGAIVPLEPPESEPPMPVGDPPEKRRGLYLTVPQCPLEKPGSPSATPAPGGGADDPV
Sequence of Luciferin 4-monooxygenase (P08659 whole entry): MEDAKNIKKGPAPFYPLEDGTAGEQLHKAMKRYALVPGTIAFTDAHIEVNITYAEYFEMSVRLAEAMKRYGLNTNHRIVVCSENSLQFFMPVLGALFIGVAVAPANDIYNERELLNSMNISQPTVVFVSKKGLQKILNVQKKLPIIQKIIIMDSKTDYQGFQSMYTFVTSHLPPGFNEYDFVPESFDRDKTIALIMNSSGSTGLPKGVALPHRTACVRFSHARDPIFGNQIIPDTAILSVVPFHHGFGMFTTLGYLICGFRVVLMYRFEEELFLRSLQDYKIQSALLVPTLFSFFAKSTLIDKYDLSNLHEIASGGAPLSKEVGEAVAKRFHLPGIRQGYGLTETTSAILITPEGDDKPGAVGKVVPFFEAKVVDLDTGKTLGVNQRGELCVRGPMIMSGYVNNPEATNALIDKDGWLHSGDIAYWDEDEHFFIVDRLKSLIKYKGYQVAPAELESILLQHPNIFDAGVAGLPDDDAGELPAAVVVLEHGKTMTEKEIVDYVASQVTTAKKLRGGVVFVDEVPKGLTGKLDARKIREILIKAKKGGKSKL
Sequence of NS3 (A3EZJ3 whole entry): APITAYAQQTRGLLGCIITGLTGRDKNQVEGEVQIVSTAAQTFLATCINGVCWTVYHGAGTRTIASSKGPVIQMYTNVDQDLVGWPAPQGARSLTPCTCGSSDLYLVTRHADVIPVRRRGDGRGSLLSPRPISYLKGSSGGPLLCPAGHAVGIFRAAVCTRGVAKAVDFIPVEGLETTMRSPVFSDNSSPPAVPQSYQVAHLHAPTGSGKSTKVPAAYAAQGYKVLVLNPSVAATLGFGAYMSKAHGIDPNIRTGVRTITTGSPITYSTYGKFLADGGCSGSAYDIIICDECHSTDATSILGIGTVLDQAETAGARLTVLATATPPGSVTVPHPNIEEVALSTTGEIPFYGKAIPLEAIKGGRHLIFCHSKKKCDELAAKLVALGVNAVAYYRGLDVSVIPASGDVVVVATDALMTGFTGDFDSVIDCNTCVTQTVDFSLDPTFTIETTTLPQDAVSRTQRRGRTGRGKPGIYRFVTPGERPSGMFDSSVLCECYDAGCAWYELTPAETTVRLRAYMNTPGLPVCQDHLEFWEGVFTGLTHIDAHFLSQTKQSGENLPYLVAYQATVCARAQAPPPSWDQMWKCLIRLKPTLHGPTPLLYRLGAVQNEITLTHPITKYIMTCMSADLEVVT

COc1ccc(C(=O)Nn2c(SCC(=O)NCc3ccco3)nc3ccccc3c2=O)cc1
EC50 [1]: > 50 µM (not active) | EC50 [2]: 0.44 µM (active) | EC50 [3]: 8.3 µM (active) | AC50 [4]: 2.48 µM (active) | EC50 [5]: 8.65 µM (inconclusive) | EC50 [6]: 8.39 µM (active) | IC50 [7]: > 20 µM (inactive)

CCC(C(=O)Nc1ccc(O)c(C(=O)O)c1)c1ccccc1 (configuration not stated)
IC50 [8]: > 100 µM (not active)

CCC1CCCCN1S(=O)(=O)c1ccc(C(=O)Nc2nnc(-c3cccs3)o2)cc1 (configuration not stated)
CC50 [9]: 3.49 µM (active) | EC50 [10]: 1.44 µM (active) | CC50 [11]: 2.43 µM (active) | IC50 [12]: 6.49 µM (active) | CC50 [13]: 9.09 µM (active)

CC(SC(=S)N1CCCC1)C(=O)O (configuration not stated)
EC50 [14]: > 35.4 µM (not active) | EC50 [15]: > 35.4 µM (not active) | EC50 [16]: > 35.4 µM (not active)

CCOC(=O)c1ccc(NC(=S)N2CCSC2c2ccc(Br)cc2)cc1 (configuration not stated)
CC50 [17]: 14 µM (active) | EC50 [18]: 4.38 µM (active) | IC50 [19]: 11 µM (active)

O=C(COC(=O)Cc1ccccc1)Nc1ncc(Cl)cc1Cl
IC50 [20]: 91.5 µM (inactive)

O=C1/C(=C/C=C/C=C/Nc2ccccc2)SC(=S)N1Cc1ccccc1
IC50 [21]: 17.3 µM (not active)

COc1ccc(NS(=O)(=O)c2c(C)n(C)c(=O)n(C)c2=O)cc1OC
EC50 [22]: > 79.4 µM (not active) | EC50 [18]: > 53 µM (inactive) | EC50 [23]: > 79.4 µM (not active) | IC50 [24]: > 47.1 µM (inactive) | EC50 [25]: > 79.4 µM (not active)

CCN(CC)C(=O)N1c2ccccc2C=Cc2ccccc21
IC50 [26]: 4.41 µM (active) | EC50 [27]: > 120 µM (not active) | CC50 [17]: 9.46 µM (active) | IC50 [19]: 2.02 µM (active) | EC50 [28]: 30 µM (active) | CC50 [29]: > 25 µM (active)

— ChEMBL document CHEMBL1201862, “PubChem BioAssay data set” (2004)
